In patent publication US6806230B1, “Pyrimidine derivatives and herbicides containing them” (Kumiai Chemical Industry Co., Ltd., priority 1999, dated 2004):

Columns and labels:
Format in all cases: in vivo
barnyard grass (Eo) [1] = assay: Test Example 1: herbicidal effects by flooded paddy field treatment; details: dose 100 gai/10a, examined on 21st day after treatment, index 0-5 per Table 44;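 further: 0-5 growth inhibition grade; 5 = over 90%; 4 = 70-90%; 3 = 50-70%; 2 = 30-50%; 1 = 10-30%; 0 = under 10%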
Procedure, shortened: (§1)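 Puddled paddy soil in pots, seeds sown, 3 cm flood. Day after sowing: wettable powder diluted in water, applied dropwise to water surface, 100 g a.i./10 ares. Greenhouse; visual herbicidal rating at day 21 post-treatment.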

barnyard grass (Ec) [2] = assay: Test Example 2: herbicidal effects by upland soil treatment; design: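 0-5 growth inhibition grade; 5 = over 90%; 4 = 70-90%; 3 = 50-70%; 2 = 30-50%; 1 = 10-30%; 0 = under 10%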; details: dose 100 g active ingredient per 10 ares, examined on the 21st day after treatment, standards of Table 44
Procedure, shortened: (§2)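 Pre-emergence test: barnyard grass and green foxtail sown in upland soil, then soil surface sprayed with wettable-powder formulation at 100 g active ingredient per 10 ares (100 l per 10 ares). Grown in greenhouse; herbicidal effect scored on a rating scale 21 days after treatment.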

barnyard grass (Ec) [3] = assay: Test Example 3: herbicidal effects by foliage treatment in upland field; design: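 0-5 growth inhibition grade; 5 = over 90%; 4 = 70-90%; 3 = 50-70%; 2 = 30-50%; 1 = 10-30%; 0 = under 10%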; details: dose 100 g active ingredient per 10 ares, examined on the 14th day after treatment
Procedure, shortened: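 Barnyard grass and green foxtail were grown in upland soil for 2 weeks in a greenhouse. A water-diluted wettable powder was sprayed over the foliage at 100 l per 10 ares, giving 100 g active ingredient per 10 ares. Herbicidal effect was scored on day 14 after treatment.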

monochoria (Mo) [4] = assay: Test Example 1: herbicidal effects by flooded paddy field treatment; details: dose 100 gai/10a, examined on 21st day after treatment, index 0-5 per Table 44;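 further: 0-5 growth inhibition grade; 5 = over 90%; 4 = 70-90%; 3 = 50-70%; 2 = 30-50%; 1 = 10-30%; 0 = under 10%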
Procedure, shortened: as §1

green foxtail (Se) = assay: Test Example 2: herbicidal effects by upland soil treatment; details: dose 100 g active ingredient per 10 ares, examined on the 21st day after treatment, standards of Table 44;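 further: 0-5 growth inhibition grade; 5 = over 90%; 4 = 70-90%; 3 = 50-70%; 2 = 30-50%; 1 = 10-30%; 0 = under 10%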
Procedure, shortened: as §2

corn (Ze) = assay: Test Example 5: selectivity for a crop plant by soil treatment in upland field; design: scale not given here; details: dose 25 gai/10a, 21st day after treatment, index per Table 44
Procedure: (§3) In a 80 cm^2 plastic pot, upland soil was filled, and seeds of barnyard grass (Ec), green foxtail (Se), soybean (G1), wheat (Tr) and corn (Ze) were sown and covered with soil. A wettable powder prepared in accordance with Formulation Example 1 was diluted with water and uniformly applied to the soil surface by a small size spray at a rate of 100 l per 10 ares so that the dose of the active ingredient would be 25 g per 10 ares. Thereafter, cultivation was carried out in a green house, and on the 21st day after the treatment, the herbicidal effects were examined in accordance with the standards of Table 44.

barnyard grass (Ec) [5] = assay: as above; design: scale not given here; details: dose 25 gai/10a, 21st day after treatment, index per Table 44
Procedure: as §3

soybean (G1) = assay: as above; design: scale not given here; details: dose 25 gai/10a, 21st day after treatment, index per Table 44
Procedure: as §3

wheat (Tr) = assay: as above; design: scale not given here; details: dose 25 gai/10a, 21st day after treatment, index per Table 44
Procedure: as §3

monochoria (Mo) [6] = assay: Test Example 4: selectivity for a crop plant by flooded paddy field treatment; design: scale not given here; details: for Mo (herbicidal effects, index): dose 25 g active ingredient per 10 ares, examined on the 21st day after treatment
Procedure, shortened: (§4)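 Flooded paddy pots, 3 cm water; weeds sown from seed, rice transplanted at 2nd-leaf stage. Day after: wettable powder diluted in water, applied dropwise to water surface, 25 g a.i./10 a. Greenhouse; herbicidal effect rated at day 21.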

barnyard grass (Eo) [7] = assay: as above; design: scale not given here; details: for Eo (herbicidal effects, index): dose 25 g active ingredient per 10 ares, examined on the 21st day after treatment
Procedure, shortened: as §4

rice (Or) = assay: as above; design: scale not given here; details: rice transplanted at second leaf stage; for Or (effect on crop plant rice, index): dose 25 g active ingredient per 10 ares, examined on the 21st day after treatment
Procedure, shortened: as §4

Or (effect on crop plant rice, index) (rice (Or))	Structure (SMILES)	Herbicidal effect index, Eo (barnyard grass (Eo) [1])	herbicidal effects, Ec (barnyard grass) (barnyard grass (Ec) [2])	Ec (herbicidal effects, index) (barnyard grass (Ec) [3])	Herbicidal effect index, Mo (monochoria (Mo) [4])	herbicidal effects, Se (green foxtail) (green foxtail (Se))	Ze (herbicidal effect index on crop) (corn (Ze))	Ec (herbicidal effect index) (barnyard grass (Ec) [5])	Gl (herbicidal effect index on crop) (soybean (G1))	Tr (herbicidal effect index on crop) (wheat (Tr))	Mo (herbicidal effects, index) (monochoria (Mo) [6])	Eo (herbicidal effects, index) (barnyard grass (Eo) [7])	Mo (herbicidal effect index) (monochoria (Mo) [6]; monochoria, dose 25 gai/10a, 21st day after treatment, index per Table 44)	Eo (herbicidal effect index) (barnyard grass (Eo) [7]; barnyard grass, dose 25 gai/10a, 21st day after treatment, index per Table 44)	Or (herbicidal effect index on crop) (rice (Or); dose 25 gai/10a, 21st day after treatment, index per Table 44)
–	CCC(C)C(c1cncnc1C(F)(F)F)N(C)C(=O)Cc1ccc(F)cc1 (mixture of isomers) [Compound 1-58]	5	5	4	5	5	0	5	0	3	–	–	–	–	–
0	CCC(C)C(c1cncnc1C(F)(F)F)N(C)C(=O)Cc1ccc(Cl)cc1 (mixture of isomers) [Compound 1-59]	5	5	4	5	5	0	5	0	1	5	5	–	–	–
1	CCC(C)C(c1cncnc1C(F)(F)F)N(C)C(=O)Cc1ccc(C)cc1 (mixture of isomers) [Compound 1-60]	5	5	4	5	5	0	5	1	2	5	5	–	–	–
0	CC(C)C(c1cncnc1C(F)(F)F)N(C)C(=O)Cc1ccc(I)cc1 (racemic) [Compound 1-42]	5	5	4	5	5	0	5	0	0	5	5	–	–	–
0	CC(C)C(c1cncnc1C(F)(F)F)N(C)C(=O)Cc1ccc(Cl)cc1F (racemic) [Compound 1-46]	5	5	4	5	5	0	5	1	3	5	5	–	–	–
1	CCN(C(=O)Cc1ccc(Cl)cc1)C(c1cncnc1C(F)(F)F)C(C)C (racemic) [Compound 1-48]	5	5	5	5	5	0	4	0	1	5	5	–	–	–
1	Cc1ccccc1CC(=O)N(C)C(c1cncnc1C(F)(F)F)C(C)C (racemic) [Compound 1-50]	5	5	4	5	5	0	4	3	3	5	5	–	–	–
1	CN(C(=O)Cc1ccc(F)cc1)C(c1cncnc1C(F)(F)F)C(C)(C)C (racemic) [Compound 1-53]	5	5	4	5	5	0	4	1	2	5	5	–	–	–
1	CN(C(=O)Cc1ccc(Cl)cc1)C(c1cncnc1C(F)(F)F)C(C)(C)C (racemic) [Compound 1-54]	5	5	5	5	5	0	4	0	1	5	5	–	–	–
–	Cc1ncncc1C(C(C)C)N(C)C(=O)Cc1ccc(Cl)cc1 (racemic) [Compound 1-56]	5	5	4	5	5	3	5	0	4	–	–	–	–	–
0	CC(C)C(c1cncnc1C(F)(F)F)N(C)C(=O)C=Cc1ccccc1 (racemic) [Compound 1-85]	5	5	–	5	5	0	4	0	1	5	5	–	–	–
–	CC(C)C(c1cncnc1C(F)(F)F)N(C)C(=O)Cc1ccc(OC(F)(F)F)cc1 (racemic) [Compound 1-95]	5	5	5	5	5	0	5	1	0	–	–	–	–	–
0	CC(C)Oc1ccc(CC(=O)N(C)C(c2cncnc2C(F)(F)F)C(C)C)cc1 (racemic) [Compound 1-97]	5	5	–	5	5	0	4	3	1	5	5	–	–	–
–	CCCN(C(=O)Cc1ccc(C#N)cc1)C(c1cncnc1C(F)(F)F)C(C)C (racemic) [Compound 1-99]	5	5	–	5	5	0	4	0	3	–	–	5	5	1
–	CC(C)C(c1cncnc1C(F)(F)F)N(C)C(=O)Cc1ccccc1F (racemic) [Compound 1-100]	5	5	5	5	5	2	5	0	2	–	–	–	–	–
